# Experimental data: ChEMBL document CHEMBL4834431, “Design of Dimeric Bile Acid Derivatives as Potent and Selective Human NTCP Inhibitors” (J Med Chem, 2021)
# pIC50: −log10 of the molar value. Activity calls are given as the source filed them. No cut-off for these calls is given here.
# Experiments:
# [1] = system: Hepatitis B virus; assay: Antiviral activity against HBV infected in human HepG2-NTCP cells assessed as reduction in intracellular HBV RNA level at 1 uM by qPCR analysis; assay type: functional, organism-based
# [2] = molecular target: T1, Hepatic sodium/bile acid cotransporter (Homo sapiens, UniProt Q14973); assay: Inhibition of human NTCP-mediated [3H]-Estrone sulfate uptake expressed in human HepG2 cells at 2 uM; assay type: cell-based; conditions: hepg2, 2 µM
# T1 sequence (Q14973 whole entry): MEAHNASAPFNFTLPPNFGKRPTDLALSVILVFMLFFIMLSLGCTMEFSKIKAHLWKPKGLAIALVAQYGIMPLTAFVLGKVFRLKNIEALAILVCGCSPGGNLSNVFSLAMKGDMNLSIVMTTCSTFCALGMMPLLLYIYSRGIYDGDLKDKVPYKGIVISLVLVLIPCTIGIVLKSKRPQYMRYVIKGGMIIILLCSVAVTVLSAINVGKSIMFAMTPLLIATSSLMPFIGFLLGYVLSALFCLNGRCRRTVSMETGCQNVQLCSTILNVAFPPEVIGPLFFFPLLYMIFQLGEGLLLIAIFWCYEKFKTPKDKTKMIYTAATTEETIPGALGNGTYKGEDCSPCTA
# [3] = system: Hepatitis B virus; assay: Antiviral activity against HBV infected in human HepG2-NTCP cells assessed as reduction in intracellular accumulation of HBsAg at 1 uM by immunostaining based fluorescence microscopic analysis; assay type: functional, organism-based
# [4] = system: Hepatitis delta virus; assay: Antiviral activity against HDV infected in human HepG2-NTCP cells assessed as reduction in intranuclear accumulation of HDV delta antigen at 5 uM incubated for 24 hrs followed by replacement with fresh medium and measured at day 5 post infection by DAPI staining based confocal microscopic analysis (reference value: 12.1 %); assay type: functional; set-up: scale not given: the % may be the effect or the level left
# [5] = system: Hepatitis B virus; assay: Antiviral activity against HBV infected in human HepG2-NTCP cells assessed as reduction in HBeAg secretion at 1 uM preincubated with compound followed by viral infection by ELISA; assay type: functional, organism-based
# [6] = system: Hepatitis B virus; assay: Antiviral activity against HBV infected in human HepG2-NTCP cells assessed as reduction in HBeAg secretion at 111 to 1000 nM incubated for 24 hrs followed by replacement with fresh medium and measured at day 5 post infection by ELISA; assay type: functional, organism-based; conditions: dose 111-1000 nM
# [7] = system: HepG2; assay: Inhibition of tree shrew NTCP-mediated [3H]-TCA uptake expressed in human HepG2 cells; assay type: cell-based; conditions: Scandentia
# [8] = system: HepG2; assay: Inhibition of monkey NTCP-mediated [3H]-TCA uptake expressed in human HepG2 cells; assay type: cell-based; conditions: Macaca mulatta
# [9] = molecular target: T2, Ileal sodium/bile acid cotransporter (Homo sapiens, UniProt Q12908); assay: Inhibition of human ASBT-mediated [3H]-TCA uptake expressed in human HepG2 cells at 2 uM; assay type: cell-based; conditions: hepg2, 2 µM
# T2 sequence (Q12908 whole entry): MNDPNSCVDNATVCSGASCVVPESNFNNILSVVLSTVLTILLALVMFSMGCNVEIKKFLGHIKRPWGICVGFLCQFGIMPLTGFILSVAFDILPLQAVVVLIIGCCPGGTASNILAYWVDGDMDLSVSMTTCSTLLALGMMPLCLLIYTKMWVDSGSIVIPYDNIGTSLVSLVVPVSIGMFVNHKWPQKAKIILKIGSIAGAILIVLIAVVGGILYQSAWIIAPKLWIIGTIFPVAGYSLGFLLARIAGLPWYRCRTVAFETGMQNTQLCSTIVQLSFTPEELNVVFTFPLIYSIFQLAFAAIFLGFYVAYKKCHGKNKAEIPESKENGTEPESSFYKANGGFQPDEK
# [10] = molecular target: T1, Hepatic sodium/bile acid cotransporter; assay: Inhibition of human NTCP-mediated [3H]-TCA uptake expressed in human HepG2 cells; assay type: cell-based; conditions: human, hepg2
# [11] = molecular target: T1, Hepatic sodium/bile acid cotransporter; assay: Inhibition of FITC-labeled HBV Pre-S1 polypeptide binding to human NTCP expressed in HepG2 cells after 2 to 3 hrs by confocal microscopic analysis; assay type: cell-based; conditions: time 2-3 hrs
# [12] = system: HepG2; assay: Inhibition of tree shrew NTCP-mediated NQ-064 uptake expressed in human HepG2 cells; assay type: cell-based; conditions: Scandentia
# [13] = system: Hepatitis B virus; assay: Antiviral activity against HBV infected in human HepG2-NTCP cells assessed as reduction in HBeAg secretion incubated for 24 hrs followed replacement with fresh medium and measured at day 5 post infection by ELISA; assay type: functional, organism-based
# [14] = molecular target: T3, Solute carrier organic anion transporter family member 1B1 (Homo sapiens, UniProt Q9Y6L6); assay: Inhibition of human OATP1B1-mediated [3H]-Estrone sulfate uptake expressed in human HepG2 cells at 2 uM; assay type: cell-based; conditions: hepg2, 2 µM
# T3 sequence (Q9Y6L6 whole entry): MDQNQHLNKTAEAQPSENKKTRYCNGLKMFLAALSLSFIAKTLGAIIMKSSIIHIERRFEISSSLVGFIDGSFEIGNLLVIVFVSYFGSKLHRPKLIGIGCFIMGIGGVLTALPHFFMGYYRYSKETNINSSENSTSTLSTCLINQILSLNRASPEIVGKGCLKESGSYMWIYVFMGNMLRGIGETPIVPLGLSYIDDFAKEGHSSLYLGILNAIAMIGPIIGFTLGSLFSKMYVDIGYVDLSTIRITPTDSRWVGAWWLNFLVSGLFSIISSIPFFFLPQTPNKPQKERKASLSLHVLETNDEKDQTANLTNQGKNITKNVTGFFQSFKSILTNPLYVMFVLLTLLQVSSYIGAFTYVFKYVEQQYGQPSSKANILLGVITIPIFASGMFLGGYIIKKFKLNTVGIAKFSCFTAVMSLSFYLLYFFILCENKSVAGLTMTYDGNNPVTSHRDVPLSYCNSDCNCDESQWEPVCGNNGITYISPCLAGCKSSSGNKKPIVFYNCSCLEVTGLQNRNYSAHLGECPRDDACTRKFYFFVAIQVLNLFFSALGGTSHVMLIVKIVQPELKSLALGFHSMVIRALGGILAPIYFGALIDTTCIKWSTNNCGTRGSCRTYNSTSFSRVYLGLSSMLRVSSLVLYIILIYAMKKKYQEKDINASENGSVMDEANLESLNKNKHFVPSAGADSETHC
# [15] = molecular target: T1, Hepatic sodium/bile acid cotransporter; assay: Inhibition of human NTCP-mediated [3H]-TCA uptake expressed in human HepG2 cells at 2 uM; assay type: cell-based; conditions: hepg2, 2 µM
# [16] = system: Hepatocyte; assay: Cytotoxicity against primary tupaia hepatocytes expressing NTCP assessed as reduction in cell viability at 100 uM after 48 hrs by Cell-Titer Glo assay; assay type: cell-based; conditions: scandentia
# [17] = molecular target: T4, Hepatic sodium/bile acid cotransporter (Mus musculus, UniProt O08705); assay: Inhibition of mouse NTCP-mediated [3H]-TCA uptake expressed in human HepG2 cells; assay type: cell-based
# T4 sequence (O08705 whole entry): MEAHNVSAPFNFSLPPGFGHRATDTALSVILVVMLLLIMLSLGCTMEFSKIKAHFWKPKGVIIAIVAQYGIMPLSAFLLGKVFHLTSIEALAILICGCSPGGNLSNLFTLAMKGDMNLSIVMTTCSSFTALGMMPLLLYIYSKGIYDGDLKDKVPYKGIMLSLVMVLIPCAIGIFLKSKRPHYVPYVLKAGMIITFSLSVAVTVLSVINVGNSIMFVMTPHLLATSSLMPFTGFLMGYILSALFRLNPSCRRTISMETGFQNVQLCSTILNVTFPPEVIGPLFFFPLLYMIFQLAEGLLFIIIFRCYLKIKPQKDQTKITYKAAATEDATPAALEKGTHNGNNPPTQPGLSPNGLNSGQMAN
# [18] = system: HepG2; assay: Effect on NTCP surface expression in human HepG2-NTCP cells assessed as reduction in NTCP surface expression level after 2 hrs by immunostaining based assay; assay type: functional, cell-based
# [19] = molecular target: T4, Hepatic sodium/bile acid cotransporter; assay: Inhibition of mouse NTCP-mediated NQL-064 uptake expressed in human HepG2 cells; assay type: cell-based
# [20] = system: Hepatitis B virus; assay: Antiviral activity against HBV infected in human HepG2-NTCP cells assessed as reduction in HBeAg secretion at 1 uM compound added along with viral infection by ELISA; assay type: functional, organism-based
# [21] = system: Hepatitis B virus; assay: Antiviral activity against HBV infected in human HepG2-NTCP cells assessed as reduction in HBeAg secretion at 1 uM pre-infected with virus followed by compound addition by ELISA; assay type: functional, organism-based
# [22] = system: Hepatitis B virus; assay: Antiviral activity against HBV infected in human HepG2-NTCP cells assessed as reduction in intracellular accumulation of HBcAg at 1 uM by immunostaining based fluorescence microscopic analysis; assay type: functional, organism-based
# [23] = system: HepG2; assay: Cytotoxicity against human HepG2 cells expressing NTCP assessed as reduction in cell viability at 10 uM after 48 hrs by alamar blue assay; assay type: cell-based; conditions: hepg2, 48 h
# [24] = system: Hepatitis B virus; assay: Antiviral activity against HBV infected in human HepG2-NTCP cells assessed as reduction in HBeAg secretion preincubated for 2 hrs followed by viral infection by ELISA; assay type: functional, organism-based
# [25] = molecular target: T1, Hepatic sodium/bile acid cotransporter; assay: Inhibition of human NTCP-mediated NQL-064 uptake expressed in human HepG2 cells; assay type: cell-based
# [26] = system: HepG2; assay: Inhibition of monkey NTCP-mediated NQL-064 uptake expressed in human HepG2 cells; assay type: cell-based; conditions: Macaca mulatta
structure (smiles),measurement,setting,value
C[C@H](CCC(=O)NCCS(=O)(=O)O)[C@H]1CC[C@H]2[C@@H]3[C@@H](O)C[C@@H]4C[C@H](OCc5cn([C@@H]6CC[C@@]7(C)[C@@H](C6)C[C@H](O)[C@@H]6[C@@H]7CC[C@]7(C)[C@@H]([C@H](C)CCC(=O)NCCS(=O)(=O)O)CC[C@@H]67)nn5)CC[C@]4(C)[C@H]3CC[C@]12C,Activity,[1],Active
same,inhibition (INH),[2],Active
same,Activity,[3],Active
same,Activity,[4],1.8%
same,Activity,[5],Active
same,Activity,[6],Active
same,inhibition,[7],inactive
same,inhibition,[8],inactive
same,inhibition (INH),[9],Not Active
same,inhibition (INH),[10],Active
same,inhibition (INH),[11],Active
same,inhibition,[12],inactive
same,pIC50,[13],7.92
same,inhibition (INH),[14],Not Active
same,inhibition (INH),[15],Active
same,Activity,[16],Non-Toxic
same,inhibition (INH),[17],Not Active
same,Activity,[18],inactive
same,inhibition (INH),[19],Not Active
same,Activity,[20],Active
same,Activity,[21],inactive
same,Activity,[22],Active
same,Activity,[23],Non-Toxic
same,Activity,[24],inactive
same,inhibition (INH),[25],Active
same,inhibition,[26],inactive
